The source of these data is patent US20250304563A1, “ACTIVATORS OF EFFECTOR T CELLS” (Orum Therapeutics, Inc., priority 2022, published 2025).

Molecules are shown by their SMILES.

The target in assay [1] is Cbl-b (36-427 aa truncated form, N-terminus Avi-tag) (Homo sapiens (Human), UniProt Q13191). In words: Cbl-b binding: TR-FRET displacement of BODIPY-FL probe. In a few lines: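 IC50 from loss of terbium–BODIPY-FL TR-FRET signal as compounds compete off a fluorescent Cbl-b inhibitor probe (1 uM) for 1 h at RT. Protein: N-Avi-tagged human Cbl-b 36-427 on streptavidin-terbium, 20 mM HEPES pH 7.5 buffer.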

In assay [2] the test system is Human primary T cells. In words: T cell activation: secreted IL-2. The assay is classed as cell-based. Particulars: 48 hours, fold over background normalized to Compound 141A; for IL-2 1 nM: 1 nM compound; for IL-2 10 nM: 10 nM compound; for IL-2 100 nM: 100 nM compound. In a few lines:
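IL-2 values are fold over anti-CD3/CD28 background, normalized to a reference compound and sorted into ranges. They come from supernatants of human pan-T cells captured on anti-CD3-coated plates and exposed 48 h, 37° C., to duplicate compound dilutions, measured with cytometric beads.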

Assay [3] concerns Human primary T cells. In words: T cell activation: secreted IFN-y. Format: cell-based. Particulars: 48 hours, fold over background normalized to Compound 141A; for IFN-y 1 nM: 1 nM compound; for IFN-y 10 nM: 10 nM compound. In a few lines:
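Values are binned ranges (A–D) of fold increase over anti-CD3/CD28 background, normalized to a reference compound, for IFN-γ in supernatants measured by bead array. Pan-T cells from donor PBMC or LeukoPaks were stimulated on anti-CD3-coated wells (10 μg/mL coating) in serum-free medium with compound for 48 h at 37 °C.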

Assay [4] concerns Human primary T cells. In words: T cell activation: CD69 surface expression by flow cytometry. The assay is classed as cell-based. The following applies: fold over anti-CD3 stimulated background normalized to Compound 141A; for CD69 10 nM: 10 nM compound; for CD69 100 nM: 100 nM compound. In a few lines:
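Read-out is flow-cytometric CD69 surface staining, expressed as fold increase over anti-CD3-stimulated background and normalized to Compound 141A. Human pan T cells from PBMC or LeukoPaks were plated on OKT3-coated wells in serum-free XVivo-15. Compound dilutions were added for 48 h at 37° C, 5% CO2.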

Assay [5] relates to human peripheral blood pan-T cells. In words: T cell activation by small molecule inhibitors of Cbl-b (biomarker flow cytometry). Format: cell-based. The following applies: 10 μM, 48 hours. The procedure:
Cryopreserved human peripheral blood pan-T cells (StemCell, 70024) were defrosted and resuspended in Immunocult-XF T cell Expansion Medium (StemCell, 10981). Cells were plated at 8×10^5 cells per well in 24 well plates, in presence or absence of pre-coated anti-CD3 (OKT3) antibody (ThermoFisher, 16-0037-85). Pre-coating of plates was done by diluting anti-CD3 antibody to 10 μg/mL in PBS and adding 1 ml to each well. Plates were incubated at 4° C. overnight or at 37° C. for 2 hours and washed once with PBS before use. Dilution of each small molecule cbl-b inhibitor was added. Untreated cell was used as a control. Plates were incubated for 48 hours at 37° C. with 5% CO2. T cells were fixed and permeabilized with Intracellular Fixation & Permeabilization Buffer Set (ThermoFisher, 88-8824), and continuously stained with one of PE-conjugated antibody listed in Table 10. Stained T cells were then analyzed with by flow cytometry (ThermoFisher Attune NxT). The percent of positive cells of each treated group was normalized with untreated cell and sorted into bins as follows: fold over background values from 10 to 14.9: range “A;” values from 5.0 to 9.9: range “B;” values from 2.0 to 4.9: range “C;” and values from 0.1 to 1.9: range “D.” Only for Notch1, geometric mean was used.
A general note: A flow cytometer gives signals particle by particle.

The mark [6] stands for this setting: +CD3 (pre-coated anti-CD3 OKT3).

Sequence of Cbl-b (36-427 aa truncated form, N-terminus Avi-tag) (Q13191 36-427): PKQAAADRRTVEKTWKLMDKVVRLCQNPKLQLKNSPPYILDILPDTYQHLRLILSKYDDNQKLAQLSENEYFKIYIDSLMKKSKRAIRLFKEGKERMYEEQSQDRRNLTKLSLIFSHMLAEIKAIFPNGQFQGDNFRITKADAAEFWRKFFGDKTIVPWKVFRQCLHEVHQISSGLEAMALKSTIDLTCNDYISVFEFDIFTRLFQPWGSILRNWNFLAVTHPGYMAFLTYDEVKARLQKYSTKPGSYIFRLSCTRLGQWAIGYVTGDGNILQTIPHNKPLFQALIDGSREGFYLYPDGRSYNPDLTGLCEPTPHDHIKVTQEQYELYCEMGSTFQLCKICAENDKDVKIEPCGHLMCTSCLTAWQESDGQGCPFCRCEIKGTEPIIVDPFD

As for `CCNc1cc(C2(Cc3nncn3C)COC2)cc(N2Cc3c(SC)cc(CN4CCC[C@H](C)C4)cc3C2=O)n1` [Compound 126, 2-[6-(ethylamino)-4-{3-[(4-methyl-1,2,4-triazol-3-yl)methyl]oxetan-3-yl}pyridin-2-yl]-6-{[(3S)-3-methylpiperidin-1-yl]methyl}-4-(methylsulfanyl)-3H-isoindol-1-one], the 50% inhibitory concentration (IC50) (commonly the concentration that gives 50% inhibition) in assay [1] fell in the range of 1 to 5 nM. In the assay with Human primary T cells [2], the “IL-2 1 nM” value was “C (values between 0.10 and 0.30: range “C”)”; the “IL-2 10 nM” value is “B (values between 0.31 and 0.79: range “B”)”; the “IL-2 100 nM” value was “A (between 0.80 and 1.40: range “A”)”. In the assay on Human primary T cells [3], the “IFN-y 1 nM” value was “B (values between 0.31 and 1.00: range “B;”)”; the “IFN-y 10 nM” value is “B (values between 0.31 and 1.00: range “B;”)”. Further, the “IFN-y 100 nM” value in the assay on Human primary T cells [3] (100 nM compound) is “A (fold over background between 1.10 and 2.00: range “A”)”. In the assay on Human primary T cells [4], the “CD69 10 nM” value was “A (values between 0.81 and 1.10: range “A”)”; the “CD69 100 nM” value was “A (values between 0.81 and 1.10: range “A”)”. Moreover, in assay [5] (setting [6]), the “Notch 1, geometric mean normalized with untreated cell (fold over background)” value was “C (values from 2.0 to 4.9: range “C;”)”; the “pCD3zeta, percent of positive cells normalized with untreated cell (fold over background)” value was “D (values from 0.1 to 1.9: range “D.”)”; the “pHS1, percent of positive cells normalized with untreated cell (fold over background)” value is listed as “C (values from 2.0 to 4.9: range “C;”)”; the “pLYN, percent of positive cells normalized with untreated cell (fold over background)” value is on record as “D (values from 0.1 to 1.9: range “D.”)”. Further, in assay [5] (setting [6]), the “pPLCg1, percent of positive cells normalized with untreated cell (fold over background)” value is listed as “C (values from 2.0 to 4.9: range “C;”)”; the “pPLCg2, percent of positive cells normalized with untreated cell (fold over background)” value was “D (values from 0.1 to 1.9: range “D.”)”; the “pZAP70, percent of positive cells normalized with untreated cell (fold over background)” value was “C (values from 2.0 to 4.9: range “C;”)”. For the same compound, in assay [5] (−CD3), the “Notch 1, geometric mean normalized with untreated cell (fold over background)” value was “D (values from 0.1 to 1.9: range “D.”)”; the “pCD3zeta, percent of positive cells normalized with untreated cell (fold over background)” value is on record as “C (values from 2.0 to 4.9: range “C;”)”; the “pHS1, percent of positive cells normalized with untreated cell (fold over background)” value was “B (values from 5.0 to 9.9: range “B;”)”; the “pLYN, percent of positive cells normalized with untreated cell (fold over background)” value was “C (values from 2.0 to 4.9: range “C;”)”. In assay [5] (−CD3), the “pPLCg1, percent of positive cells normalized with untreated cell (fold over background)” value is on record as “C (values from 2.0 to 4.9: range “C;”)”; the “pPLCg2, percent of positive cells normalized with untreated cell (fold over background)” value is reported as “B (values from 5.0 to 9.9: range “B;”)”; the “pZAP70, percent of positive cells normalized with untreated cell (fold over background)” value is on record as “C (values from 2.0 to 4.9: range “C;”)”.

For the compound `CC1CC(c2cc(NCCC#N)nc(N3Cc4c(cc(CN5CCC[C@H](C)C5)cc4C(F)(F)F)C3=O)c2)(c2nncn2C)C1` (stereo partly drawn) [Compound 192, 3-{[6-(6-{[(3S)-3-methylpiperidin-1-yl]methyl}-1-oxo-4-(trifluoromethyl)-3H-isoindol-2-yl)-4-[(1r,3s)-3-methyl-1-(4-methyl-1,2,4-triazol-3-yl)cyclobutyl]pyridin-2-yl]amino}propanenitrile], in the assay on Human primary T cells [2], the “IL-2 1 nM” value was “D (values between 0.01 and 0.09: range “D.”)”; the “IL-2 10 nM” value was “B (values between 0.31 and 0.79: range “B”)”; the “IL-2 100 nM” value is “X (fold over background values between 1.41 and 1.8: range “X”)”. Besides, in the assay on Human primary T cells [3], the “IFN-y 1 nM” value is “B (values between 0.31 and 1.00: range “B;”)”; the “IFN-y 10 nM” value was “B (values between 0.31 and 1.00: range “B;”)”. Further, the “CD69 1 nM” value with Human primary T cells [4] (1 nM compound) was “C (values between 0.30 and 0.60: range “C”)”. In the assay on Human primary T cells [4], the “CD69 10 nM” value was “A (values between 0.81 and 1.10: range “A”)”; the “CD69 100 nM” value is “X (fold over background values between 1.11 and 1.6: range “X”)”. Besides, in assay [5] (setting [6]), the “Notch 1, geometric mean normalized with untreated cell (fold over background)” value is given as “C (values from 2.0 to 4.9: range “C;”)”; the “pCD3zeta, percent of positive cells normalized with untreated cell (fold over background)” value was “D (values from 0.1 to 1.9: range “D.”)”; the “pHS1, percent of positive cells normalized with untreated cell (fold over background)” value is reported as “C (values from 2.0 to 4.9: range “C;”)”; the “pLYN, percent of positive cells normalized with untreated cell (fold over background)” value was “D (values from 0.1 to 1.9: range “D.”)”. In assay [5] (setting [6]), the “pPLCg1, percent of positive cells normalized with untreated cell (fold over background)” value is “C (values from 2.0 to 4.9: range “C;”)”; the “pPLCg2, percent of positive cells normalized with untreated cell (fold over background)” value is recorded as “D (values from 0.1 to 1.9: range “D.”)”; the “pZAP70, percent of positive cells normalized with untreated cell (fold over background)” value was “C (values from 2.0 to 4.9: range “C;”)”. In assay [5] (−CD3), the “Notch 1, geometric mean normalized with untreated cell (fold over background)” value was “D (values from 0.1 to 1.9: range “D.”)”; the “pCD3zeta, percent of positive cells normalized with untreated cell (fold over background)” value is on record as “C (values from 2.0 to 4.9: range “C;”)”; the “pHS1, percent of positive cells normalized with untreated cell (fold over background)” value was “A (fold over background values from 10 to 14.9: range “A;”)”; the “pLYN, percent of positive cells normalized with untreated cell (fold over background)” value is recorded as “C (values from 2.0 to 4.9: range “C;”)”. Also, in assay [5] (−CD3), the “pPLCg1, percent of positive cells normalized with untreated cell (fold over background)” value is recorded as “B (values from 5.0 to 9.9: range “B;”)”; the “pPLCg2, percent of positive cells normalized with untreated cell (fold over background)” value was “A (fold over background values from 10 to 14.9: range “A;”)”; the “pZAP70, percent of positive cells normalized with untreated cell (fold over background)” value is recorded as “C (values from 2.0 to 4.9: range “C;”)”.
